Tests used:
Serine protease 1 = Serine protease 1 (Homo sapiens, UniProt P07477); test: Tyrpsin Amidolytic Assay; conditions: pH 7.5
Experimental: (§1) Buffer and 0.1 mL of enzyme solution was added to 0.2 mL of examined compounddissolved in 0.15 M NaCl (as control 0.15 M NaCl). The buffer and the enzyme solution included: Borane buffer − 0.5 mL (pH 7.5), enzyme: trypsin (0.4units/mL), synthetic substrate: Bzl-L-Arg-pNA HCl (0.2 mL, 8 mM). The mixture was incubated for 3 min at 37°C. After 20 min of incubation, the reaction was stopped by adding 0.1 ml of 50% acetic acid, and the absorbance of the released p-nitroaniline was measured at 405 nm (Spekol 1300, AnalyticJena).

Plasminogen = Plasminogen (Homo sapiens, UniProt P00747); test: Plasmin Amidolytic Assay; conditions: pH 7.4
Experimental: as §1, with “Tris” for “Borane”, “7.4),” for “7.5),”, “plasmin (0.4 units/mL),” for “trypsin (0.4units/mL),”, “S-2251” for “Bzl-L-Arg-pNA HCl”, “3” for “8”

[1] = target: Urokinase-type plasminogen activator (Homo sapiens, UniProt P00749); test: Urokinase Amidolytic Assay; conditions: pH 8.8
Experimental: as §1, with “Tris” for “Borane”, “0.6” for “0.5”, “8.8),” for “7.5),”, “urokinase (50 units/mL),” for “trypsin (0.4units/mL),”, “S-2444 (0.1” for “Bzl-L-Arg-pNA HCl (0.2”, “3” for “8”

Prothrombin = Prothrombin (Homo sapiens, UniProt P00734); test: Thrombin Amidolytic Assay; conditions: pH 8.4
Experimental: as §1, with “Tris” for “Borane”, “8.4),” for “7.5),”, “thrombin (1 units/mL),” for “trypsin (0.4units/mL),”, “S-2238” for “Bzl-L-Arg-pNA HCl”, “0.75” for “8”

Serine protease 1, sequence (P07477 whole entry): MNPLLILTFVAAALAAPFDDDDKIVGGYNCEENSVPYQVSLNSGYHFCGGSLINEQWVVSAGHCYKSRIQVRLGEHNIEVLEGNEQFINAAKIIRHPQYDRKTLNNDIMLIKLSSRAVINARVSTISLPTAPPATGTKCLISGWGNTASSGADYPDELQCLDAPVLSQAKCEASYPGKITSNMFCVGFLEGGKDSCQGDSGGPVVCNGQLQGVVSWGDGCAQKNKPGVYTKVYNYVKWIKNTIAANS
Plasminogen, sequence (P00747 97-580 limits assumed): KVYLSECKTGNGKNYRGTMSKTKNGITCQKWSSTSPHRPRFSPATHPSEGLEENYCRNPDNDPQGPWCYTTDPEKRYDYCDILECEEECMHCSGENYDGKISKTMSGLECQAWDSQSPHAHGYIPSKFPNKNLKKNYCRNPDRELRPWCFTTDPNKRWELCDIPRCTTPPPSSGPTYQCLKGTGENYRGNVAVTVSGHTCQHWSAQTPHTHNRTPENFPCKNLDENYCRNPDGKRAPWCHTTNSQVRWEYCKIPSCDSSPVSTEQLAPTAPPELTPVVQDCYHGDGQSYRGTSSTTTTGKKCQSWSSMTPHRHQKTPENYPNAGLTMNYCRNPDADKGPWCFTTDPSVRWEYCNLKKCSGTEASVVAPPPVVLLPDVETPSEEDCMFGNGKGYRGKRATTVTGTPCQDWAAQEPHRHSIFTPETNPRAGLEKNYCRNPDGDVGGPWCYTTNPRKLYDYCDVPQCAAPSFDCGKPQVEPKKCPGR
Plasminogen, sequence (P00747 581-810 limits assumed): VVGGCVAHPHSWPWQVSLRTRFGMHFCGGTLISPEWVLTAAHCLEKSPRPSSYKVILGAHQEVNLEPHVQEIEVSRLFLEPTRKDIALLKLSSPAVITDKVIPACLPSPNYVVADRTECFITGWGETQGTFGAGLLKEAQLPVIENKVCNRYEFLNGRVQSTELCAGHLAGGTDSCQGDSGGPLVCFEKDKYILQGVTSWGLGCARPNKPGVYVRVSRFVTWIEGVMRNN

Structure (SMILES) | Ki (Serine protease 1) [µM] | Ki (Plasminogen) [µM] | Ki [1] [µM] | Ki (Prothrombin) [µM]
N=C(N)NCCC[C@@H](NC(=O)[C@@H](CC1CCCCC1)NC(=O)[C@H](N)CO)C(=O)O [H-D-Ser-Cha-Arg-OH (5)] | – | – | 247 | 19.8
N=C(N)NCCC[C@H](NC(=O)[C@H](CC1CCCCC1)NC(=O)[C@H](N)CO)C(=O)O [H-D-Ser-Cha-Arg-OH (5)] | 30.9 | 8.9 | – | –
N=C(N)NCCC[C@@H](NC(=O)[C@@H](CCc1ccccc1)NC(=O)[C@H](N)CO)C(=O)O [H-D-Ser-homoPhe-Arg-OH (3)] | – | – | 566 | 16.1
N=C(N)NCCC[C@H](NC(=O)C1(NC(=O)[C@H](N)CO)CCCCC1)C(=O)O [H-D-Ser-1ACH-Arg-OH (8)] | 26.2 | 7.7 | – | –
N=C(N)NCCC[C@@H](NC(=O)C1(NC(=O)[C@H](N)CO)CCCCC1)C(=O)O [H-D-Ser-1ACH-Arg-OH (8)] | – | – | 395 | 15
N=C(N)NCCC[C@H](NC(=O)[C@H](CCC1CCCCC1)NC(=O)[C@H](N)CO)C(=O)O [H-D-Ser-homoCha-Arg-OH (6)] | 27.2 | 11.2 | – | –
N=C(N)NCCC[C@@H](NC(=O)[C@@H](CCC1CCCCC1)NC(=O)[C@H](N)CO)C(=O)O [H-D-Ser-homoCha-Arg-OH (6)] | – | – | 451 | 18.1

Results, then the molecule that gave them:

Ki (Serine protease 1) [µM] | Ki (Plasminogen) [µM] | Ki [1] [µM] | Ki (Prothrombin) [µM] | Structure (SMILES)
28.2 | 7.9 | – | – | C[C@@](Cc1ccccc1)(NC(=O)[C@H](N)CO)C(=O)N[C@@H](CCCNC(=N)N)C(=O)O [H-D-Ser-αMePhe-Arg-OH (7)]
22.9 | 8.7 | – | – | N=C(N)NCCC[C@H](NC(=O)[C@H](Cc1ccccc1)NC(=O)[C@H](N)CO)C(=O)O [H-D-Ser-Phe-Arg-OH (2)]
– | – | 544 | 12.1 | N=C(N)NCCC[C@@H](NC(=O)[C@@H](Cc1ccccc1)NC(=O)[C@H](N)CO)C(=O)O [H-D-Ser-Phe-Arg-OH (2)]
23.9 | 5.9 | – | – | N=C(N)NCCC[C@H](NC(=O)[C@H](CCc1ccccc1)NC(=O)[C@H](N)CO)C(=O)O [H-D-Ser-homoPhe-Arg-OH (3)]
